# In US20120283175A1, “ANTIBACTERIAL COMPOSITIONS” (Achaogen, Inc., priority 2009, published 2012):
# Experiments:
# envA1 (D22) E. coli = assay: MIC by broth microdilution, isogenic envA1 mutant strain; format: cell-based
# K. pneumo. (ATCC43816) = assay: Neutropenic thigh in vivo efficacy model (mice); set-up: species or system Klebsiella pneumoniae
# envA+ (D21) E. coli = assay: MIC by broth microdilution, isogenic envA+ strain; format: cell-based
# Description: (§1) Bacterial isolates were cultivated from −70° C. frozen stocks of the indicated strains by overnight passages at 35° C. in ambient air on Mueller-Hinton agar (Beckton Dickinson, Franklin Lakes, N.J.). Minimum Inhibitory Concentrations (MICs) were determined by the broth microdilution method in accordance with the Clinical and Laboratory Standards Institute (CLSI) guidelines. In brief, organism suspensions were adjusted to a 0.5 McFarland standard to yield a final inoculum between 3×10^5 and 7×10^5 colony-forming units (CFU)/mL. Drug dilutions and inocula were made in sterile, cation adjusted Mueller-Hinton Broth (Beckton Dickinson). An inoculum volume of 100 μL was added to wells containing 100 μL of broth with 2-fold serial dilutions of drug. All inoculated microdilution trays were incubated in ambient air at 35° C. for 18-24 hours. Following incubation, the lowest concentration of the drug that prevented visible growth (OD600 nm <0.05) was recorded as the MIC.
# [1] = system: P. aeruginosa (ATCC27853); details: P. aeruginosa (ATCC27853); summary
# E. coli ATCC25922 = assay: MIC by broth microdilution, wild type strain ATCC25922; format: cell-based
# Description: as §1
# Klebsiella pneumoniae = assay: Checkerboard synergy assay with LpxCi-4; format: cell-based; details: combination with LpxCi-4
# Text: (§2) One classic method for assessing synergy, referred to as the checkerboard assay, is used to predict the efficacy of antibacterial agents, and is described by Scribner et. al., (Antimicrobial Agents and Chemotherapy 21(6):939-943 (1982)) and in Goodman & Gilman (The Pharmacological Basis of Therapeutics, Sixth Edition, pp. 1097-1098 (1980)). The checkerboard assay involves serial two-fold dilutions of the antibiotics individually and in combination in broth, which is then inoculated with the microorganism to be tested. After incubation, the minimum inhibitory concentration (MIC) of each drug used individually and in combination is determined (N.B., the MIC is the lowest concentration of the drug that inhibits growth in the medium). Synergism is indicated by a decrease in the MIC of each drug when used in combination. Antagonism is indicated by an increase in the MIC of either or both drugs when used in combination. Alternate methods of assessing synergy are reviewed in Greco, et al., Pharmacological Reviews 47(2):[…] (1995), incorporated herein by reference in its entirety.
# (§3) Partial or full inhibition of LpxC should compromise the outer membrane and thus allow these synergizing agents to enter the cells and exert an antibacterial effect at concentrations where cells untreated with an LpxC inhibitor are unaffected. As a first step, checkerboard synergy assays for a variety of antibacterial agents were perform with several LpxC inhibitors, on several species of gram negative bacteria.
# as §1
# (§4) Standard checkerboard assays were performed with a combination of the indicated agents and LpxCi-4. Table 2 provides the FICI calculated according to standard techniques.
# Yersinia enterocolitica = assay: Checkerboard synergy assay with LpxCi-4; format: cell-based; details: combination with LpxCi-4
# Text: as §2, §3, §1, §4
# Escherichia coli = assay: Checkerboard synergy assay with LpxCi-4; format: cell-based; details: combination with LpxCi-4
# Text: as §2, §3, §1, §4
# gram negative bacteria = assay: Checkerboard synergy score at fractions of the antibacterial agent's MIC, with LpxCi-1, -2, -3; format: cell-based
# In short: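 CLSI broth microdilution in cation-adjusted Mueller-Hinton broth, inoculum 3×10^5–7×10^5 CFU/mL, 2-fold serial drug dilutions.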
compound,measurement,setting,value
"CN[C@H](CC(C)C)C(=O)N[C@H]1C(=O)N[C@@H](CC(N)=O)C(=O)N[C@H]2C(=O)N[C@H]3C(=O)N[C@H](C(=O)N[C@H](C(=O)O)c4cc(O)cc(O)c4-c4cc3ccc4O)[C@H](O)c3ccc(c(Cl)c3)Oc3cc2cc(c3O[C@@H]2O[C@H](CO)[C@@H](O)[C@H](O)[C@H]2O[C@H]2C[C@](C)(N)[C@H](O)[C@H](C)O2)Oc2ccc(cc2Cl)[C@H]1O [Vancomycin, vancomycin]",MIC,envA1 (D22) E. coli; Strain envA1 (D21),32 µg/mL
same,Fold decrease in MIC (envA+/envA1),envA1 (D22) E. coli; envA+ vs envA1 E. coli,≧8
same,in vivo synergy with multiple LpxC inhibitors,"K. pneumo. (ATCC43816); K. pneumo. (ATCC43816), summary",surprising in vivo synergy
same,"reduction in CFU, single agent","K. pneumo. (ATCC43816); vancomycin alone at 440 mg/kg/day, ATCC43816",no significant reduction in CFU
same,MIC,envA+ (D21) E. coli,> 256 µg/mL
same,in vivo synergy with LpxC inhibitors,[1],surprising in vivo synergy
same,MIC,E. coli ATCC25922,> 256 µg/mL
same,FICI index,Klebsiella pneumoniae,≦0.18
same,FICI index,Yersinia enterocolitica,≦0.31
same,FICI index,Escherichia coli,≦0.28
same,Synergy Score,"gram negative bacteria; with LpxCi-1, antibacterial agent at 1/16 MIC",0.17
same,Synergy Score,"gram negative bacteria; with LpxCi-1, antibacterial agent at 1/64 MIC",0.35
same,Synergy Score,"gram negative bacteria; with LpxCi-1, antibacterial agent at ¼ MIC",0.29
same,Synergy Score,"gram negative bacteria; with LpxCi-2, antibacterial agent at 1/16 MIC",0.40
same,Synergy Score,"gram negative bacteria; with LpxCi-2, antibacterial agent at 1/64 MIC",1.02
same,Synergy Score,"gram negative bacteria; with LpxCi-2, antibacterial agent at ¼ MIC",0.36
same,Synergy Score,"gram negative bacteria; with LpxCi-3, antibacterial agent at 1/16 MIC",0.40
same,Synergy Score,"gram negative bacteria; with LpxCi-3, antibacterial agent at 1/64 MIC",0.35
same,Synergy Score,"gram negative bacteria; with LpxCi-3, antibacterial agent at ¼ MIC",0.36
